Laboratory results: publication PMC11774939, “Optimizing lipopeptide bioactivity: The impact of non-ionic surfactant dressing” (Journal of Pharmaceutical Analysis, 2024)
Where two headings read alike, the source gives them in different places. Peptide text beside a SMILES is read from it. * marks the point of attachment. Palmitoyl = CCCCCCCCCCCCCCCC(=O)*

Columns and labels:
[1] = cited from earlier work
[2] = cited from earlier work; remark: listed apart in the source
From the text: Supplement mmc1.docx, table 1: Table S1. Lipopeptide-based drugs, with their characteristics, disease target, and the year of approval. | column: Plasma protein binding

[3] = Antigen release, dialysis membrane assay; assay type: physicochemical; details: pATIPC-Plur123 mixed micelles (80 µM peptide, Plur123 40 g/L in PBS), dialysis 10K MWCO, 37 °C, after 4 h, HPLC AUC vs 0 h
Method: Lipopeptide release was assessed by incubating the mixed micelles in PBS at 37 °C for 6 hours, using the dialysis membrane method. Briefly, the pATIPC lipopeptide (80 µM) was dissolved in Plur123 (40 g/L, in PBS), mixed, then centrifuged using a 0.2 µm Nylon filter to remove the aggregated peptide particles. The formation of the mixed micelles was checked by DLS and the peptide content was measured by HPLC, as described above. Mixed micelle solution was then loaded into a Slide-A-Lyzer Mini Dialysis Device (10K MWCO) (Thermo Fisher Scientific, Waltham, MA, USA) and incubated at 37 °C using PBS as release medium. At 0, 1, 4 and 6 h, the micelles within the dialysis membrane were taken for measurements of particle size and distribution by DLS.

[4] = DLS of peptide-loaded poloxamer micelles; assay type: physicochemical; details: lipopeptide-loaded Plur123 micelles, DLS 37 °C
Method: Peptide-loaded poloxamer micelles were prepared by solubilizing the peptides in 50 g/L poloxamer solutions in PBS (pH 7.4). The peptides were previously dissolved in DMSO, and then the poloxamer solutions were added. The final DMSO content was 5%. The solutions were left shaking overnight to allow enough time for solubilization. Before the measurements, PBS was added to the solutions to reach 5 g/L poloxamer concentration. In the biological experiments, these samples were diluted twice with the corresponding culture media.
The average hydrodynamic diameter (dH) and polydispersity of the peptide-loaded micelles were determined using a dynamic light scattering (DLS) instrument (NanoLab 3D^TM, LS Instruments, Fribourg, Switzerland) based on three-dimensional (3D) modulation technology. A fibre-coupled diode laser operating at 638 nm served as the light source. The measurements were performed at a detection angle of 90° and at temperatures of 37.00 ± 0.02 °C. The recorded autocorrelation functions were analyzed using the second order cumulant expansion method. Before the measurements, the samples were filtered with a 0.2 μm syringe filter.

[5] = Encapsulation efficacy: HPLC of lipopeptide passing 0.2 μm filter; assay type: physicochemical; details: poloxamer 5 g/L in PBS, peptide pre-dissolved in DMSO (pL1 200 μM, pCM15 100 μM, pATIPC 10 μM); centrifuged through 0.2 μm nylon filter, HPLC AUC vs fully solubilized lipopeptide
Method: Section S3 in the Supplementary data contains the detailed characterization of the mixed micelles (Fig. S7A). First, calibration curves were plotted for each lipopeptide in a medium in which the compounds were perfectly soluble, namely in eluent B (0.1% TFA in acetonitrile:water (4:1, V/V) solution) (Figs. S7B−D). Next, poloxamer-lipopeptide constructs were prepared as follows: the lipopeptide samples were pre-dissolved in DMSO and then mixed with the poloxamer/PBS solutions, left shaking overnight. In the next day, the concentration was adjusted by adding PBS to the solutions. The composition of the samples was as follows: poloxamer 5 g/L and peptides (pL1 200 μM, pCM15 100 μM, and pATIPC 10 μM). Then, lipopeptide/poloxamer constructs were centrifuged using a 0.2 μm nylon filter, diluted twice with eluent B, and injected to the HPLC column. […] The highest encapsulation efficacy was measured for the shortest lipopeptide pL1, and all three poloxamers formed mixed micelles with the lipopeptides in more than 80%. It was assumed that the filtered part of the samples contains the lipopeptide aggregates with particle size of […].
Fig. S7. Formulation of Lipopeptides with Poloxamers. Overview of the analytical characterization of the samples (A). Calibration curves for the fully solubilized lipopeptides with the linear regression equation (B-D). […]

[6] = test system: HT-29 colorectal adenocarcinoma cells; experiment: In vitro antitumor effect, AlamarBlue; assay type: cell-based, human; details: 5 μM pCM15 lipopeptide, 24 h treatment, vs medium-treated control, mean ± SD, n = 4
Method: All data are presented as mean ± SD (n = 4). Statistical analysis was performed using one-way analysis of variance (ANOVA), followed by Tukey's post-hoc test. Statistical significances were denoted as ^∗P < 0.05, ^∗∗P < 0.01, and ^∗∗∗P < 0.001.

S. aureus = test system: S. aureus; parameters: method as in 2 sources, one per row (each row's own in cited_ref): ref 69 = [69]; PMID 34822969; doi:10.1016/j.micpath.2021.105301; 69 Roshanak S. Shahidi F. Tabatabaei Yazdi F. Buforin I an alternative to conventional antibiotics: Evaluation of the antimicrobial properties, stability, and safety Microb. Pathog. 161 2021 105301 10 ||| ref 53,70 = [53]; PMID 10890923; doi:10.1073/pnas.150518097; 53 Park C.B. Yi K.S. Matsuzaki K. Structure-activity analysis of buforin II, a histone H2A-derived antimicrobial peptide: The proline hinge is responsible for the cell-penetrating ability of buforin I || [70]; 70 Lee H. Yang S. Dimerization of cell-penetrating buforin II enhances antimicrobial properties J. Anal. Sci. Technol. 12 2021 9; details: cited from earlier work
From the text: (§1) However, since this peptide contains only four amino aci ...

MRSA strain = test system: MRSA strain; parameters: method as in PMID 34822969; details: cited from earlier work
From the text: as §1

Compound: Insulin detemir
- Half-life ([1]; in vivo): 5 to 7 h
- Route of elimination ([1]; in vivo): Mainly urinary excretion
- Plasma protein binding [2]: 98%

Compound: Dalbavancin
- Route of elimination ([1]; approved drug characteristics): Mainly through fecal excretion
- Plasma protein binding ([2]; approved drug characteristics): 93%

Compound: Rezafungin
- Half-life ([1]; approved drug characteristics): >130 h
- Route of elimination ([1]; approved drug characteristics): Mainly through fecal excretion
- Plasma protein binding ([2]; approved drug characteristics): 87-99%

Compound: pal-KLVANNTRLTKPK- (FFGINTIPIAC)-GGLIDIAPHQISSV [pATIPC]
- pATIPC antigen remaining inside the micelles [3]: more than 50%
- Increase in particle size after one week of storage as a solution [4]: 10 nm
- Encapsulation (lipopeptide in form <0.2 μm, in mixed micelles) [5]: around 60%

Compound: Insulin degludec
- Half-life ([1]; approved drug characteristics): 25 h
- Route of elimination ([1]; approved drug characteristics): Mainly urinary excretion
- Plasma protein binding ([2]; approved drug characteristics): >99%

Compound: Colistin
- Half-life ([1]; in vivo): 5 h
- Route of elimination ([1]; in vivo): Mainly urinary excretion
- Plasma protein binding [2]: 50%

Compound: Caspofungin
- Half-life ([1]; approved drug characteristics): 9 to 11 h
- Route of elimination ([1]; approved drug characteristics): Urinary and fecal excretion
- Plasma protein binding ([2]; approved drug characteristics): 97%

Compound: Polymyxin B
- Half-life ([1]; approved drug characteristics): 6 to 11.5 h
- Route of elimination ([1]; approved drug characteristics): Mainly urinary excretion

Compound: Daptomycin
- Route of elimination ([1]; approved drug characteristics): Urinary excretion
- Plasma protein binding ([2]; approved drug characteristics): 90-94%

Compound: CCCCCCCCCCCCCCCC(=O)N[C@@H](CCCCN)C(=O)N[C@@H](Cc1c[nH]c2ccccc12)C(=O)N[C@@H](CCCCN)C(=O)N[C@@H](CC(C)C)C(=O)N[C@@H](Cc1ccccc1)C(=O)N[C@@H](CCCCN)C(=O)N[C@@H](CCCCN)C(=O)N[C@H](C(=O)NCC(=O)N[C@@H](C)C(=O)N[C@H](C(=O)N[C@@H](CC(C)C)C(=O)N[C@@H](CCCCN)C(=O)N[C@H](C(=O)N[C@@H](CC(C)C)C(N)=O)C(C)C)C(C)C)[C@@H](C)CC [pCM15] (Palmitoyl-KWKLFKKIGAVLKVL-NH2)
- Cytotoxicity [6]: 35.0% ± 4.8

Compound: Micafungin
- Half-life ([1]; approved drug characteristics): 14 to 17 h
- Route of elimination ([1]; approved drug characteristics): Mainly through fecal excretion
- Plasma protein binding ([2]; approved drug characteristics): >99%

Compound: AGRGKQGGKVRAKAKTRSSRAGLQFPVGRVHRLLRKGNY [Buforin I]
- Concentration with activity against S. aureus (S. aureus): 10 µg/mL
- MIC for the MRSA strain (MRSA strain): 14 µg/mL
